In US12570666B2, “Furoindazole derivatives” (Bayer Aktiengesellschaft, priority 2019, dated 2026):

Target: T1, human GPR84 receptor (Homo sapiens, UniProt Q9NQS5)
T1 construct: frozen aliquots prepared by acCELLerate; host or cells: CHO-K1
Assay: cAMP HTRF assay for identification of cellular GPR84 antagonists
Type: cell-based
Settings: CHO-K1 cells stably expressing human GPR84; Forskolin + agonist 6-OAU (EC80); average or median values
How it was run: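 IC50 came from 4-parameter fits over 20 μM–0.07 nM (11 points, duplicate), normalized between DMSO (0%) and agonist-free (100% inhibition) wells. Readout: cAMP-d2/Eu-cryptate HTRF in hGPR84 CHO-K1 cells given forskolin plus agonist, compound preincubated 30 min at room temperature.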

T1 sequence (Q9NQS5 whole entry): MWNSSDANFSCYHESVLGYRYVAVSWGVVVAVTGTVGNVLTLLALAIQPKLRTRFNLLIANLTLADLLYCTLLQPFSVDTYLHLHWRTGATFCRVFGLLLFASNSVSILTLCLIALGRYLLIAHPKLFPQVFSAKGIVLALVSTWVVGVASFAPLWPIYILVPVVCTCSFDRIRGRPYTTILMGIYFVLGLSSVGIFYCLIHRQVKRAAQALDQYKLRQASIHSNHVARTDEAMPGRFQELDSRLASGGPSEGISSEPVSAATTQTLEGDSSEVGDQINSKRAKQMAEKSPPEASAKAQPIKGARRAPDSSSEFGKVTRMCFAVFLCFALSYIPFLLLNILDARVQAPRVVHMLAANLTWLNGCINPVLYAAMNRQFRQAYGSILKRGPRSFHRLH

| SMILES | IC50 |
| --- | --- |
| Cc1ccc(Cn2cc3c(n2)-c2c(oc(C(=O)N[C@@H]4CCOC4)c2C)CC3)nc1 [Example 318, 8-methyl-2-[(5-methylpyridin-2-yl)methyl]-N-[(3R)-oxolan-3-yl]-4,5-dihydro-2H-furo[2,3-g]indazole-7-carboxamide] | 8310 nM |
| Cc1c(C(=O)NC[C@@H]2COCCO2)oc2c1-c1nn(C[C@H]3CCO3)cc1CC2 [Example 98, N-[(2R)-1,4-dioxan-2-ylmethyl]-8-methyl-2-[(2R)-oxetan-2-ylmethyl]-4,5-dihydro-2H-furo[2,3-g]indazole-7-carboxamide] | 470 nM |
| Cc1c(C(=O)NCCN2CCN(C)CC2)oc2c1-c1nn(CC3COc4ncccc4O3)cc1CC2 (racemic) [Example 54, 2-[(2R/S)-2,3-dihydro[1,4]dioxino[2,3-b]pyridin-2-ylmethyl]-8-methyl-N-[2-(4-methylpiperazin-1-yl)ethyl]-4,5-dihydro-2H-furo[2,3-g]indazole-7-carboxamide] | 550 nM |
| O=C(NCCc1cccnc1)c1oc2c(c1C(F)(F)F)-c1nn(C[C@H]3COCCO3)cc1CC2 [Example 236, 2-[(2S)-1,4-Dioxan-2-ylmethyl]-N-[2-(pyridin-3-yl)ethyl]-8-(trifluormethyl)-4,5-dihydro-2H-furo[2,3-g]indazol-7-carboxamide] | 8760 nM |
| Cc1c(C(=O)NCc2cc(C3CC3)on2)oc2c1-c1nn(CC3COc4ncccc4O3)cc1CC2 (single isomer, unassigned) [Example 50-2] | 17 nM |
| Cc1c(C(=O)NC[C@H]2CCCO2)oc2c1-c1nn(C[C@@H]3COc4ncccc4O3)cc1CC2 (racemic) [Example 51, 2-[(2R/S)-2,3-dihydro[1,4]dioxino[2,3-b]pyridin-2-ylmethyl]-8-methyl-N-[(2R/S)-tetrahydrofuran-2-ylmethyl]-4,5-dihydro-2H-furo[2,3-g]indazole-7-carboxamide] | 56 nM |
| C[C@@H]1Cc2oc(C(=O)NCc3ccn(C)n3)c(C(F)(F)F)c2-c2nn(C[C@H]3COCCO3)cc21 (single isomer, unassigned) [Example 257, (4R or 4S)-2-{[(2S)-1,4-dioxan-2-yl]methyl}-4-methyl-N-[(1-methyl-1H-pyrazol-3-yl)methyl]-8-(trifluoromethyl)-4,5-dihydro-2H-furo[2,3-g]indazole-7-carboxamide] | 25 nM |
| C[C@@H]1Cc2oc(C(=O)NCc3cncs3)c(C(F)(F)F)c2-c2nn(C[C@H]3COCCO3)cc21 (single isomer, unassigned) [Example 316, (4R or 4S)-2-{[(2S)-1,4-dioxan-2-yl]methyl}-4-methyl-N-[(1,3-thiazol-5-yl)methyl]-8-(trifluoromethyl)-4,5-dihydro-2H-furo[2,3-g]indazole-7-carboxamide] | 374 nM |
| Cc1c(C(=O)NC[C@@H]2CCCO2)oc2c1-c1nn(CC3(F)CNC3)cc1CC2 [Example 157, 2-[(3-fluoroazetidin-3-yl)methyl]-8-methyl-N-[(2S)-tetrahydrofuran-2-ylmethyl]-4,5-dihydro-2H-furo[2,3-g]indazole-7-carboxamide] | 180 nM |
| CC(=O)N1CCC(Cn2cc3c(n2)-c2c(oc(C(=O)NC[C@@H]4COCCO4)c2C(F)(F)F)CC3)CC1 [Example 306] | 27 nM |
| Cc1cnc(CNC(=O)c2oc3c(c2C(F)(F)F)-c2nn(C[C@H]4COCCO4)cc2CC3)cn1 [Example 227, 2-[(2S)-1,4-Dioxan-2-ylmethyl]-N-[(5-methylpyrazin-2-yl)methyl]-8-(trifluormethyl)-4,5-dihydro-2H-furo[2,3-g]indazol-7-carboxamide] | 24 nM |
| Cc1c(C(=O)NC[C@H]2OCC[C@H]2C)oc2c1-c1nn(Cc3ccccn3)cc1CC2 (racemic) [Example 177] | 2600 nM |
| Cc1ccc(Cn2cc3c(n2)-c2c(oc(C(=O)NC[C@@H]4COCCO4)c2C)CC3)cn1 [Example 76, N-[(2R)-1,4-dioxan-2-ylmethyl]-8-methyl-2-[(6-methylpyridin-3-yl)methyl]-4,5-dihydro-2H-furo[2,3-g]indazole-7-carboxamide] | 65 nM |
| Cc1c(C(=O)NC[C@@H]2CCCO2)oc2c1-c1nn(C(C)c3ccccn3)cc1CC2 (mixture of isomers) [Example 317, 8-methyl-N-{[(2S)-oxolan-2-yl]methyl}-2-[(1±)-1-(pyridin-2-yl)ethyl]-4,5-dihydro-2H-furo[2,3-g]indazole-7-carboxamide] | 578 nM |
| CCN1CCC(Cn2cc3c(n2)-c2c(oc(C(=O)NC[C@@H]4COCCO4)c2C(F)(F)F)CC3)CC1 [Example 312, N-{[(2R)-1,4-dioxan-2-yl]methyl}-2-[(1-ethylpiperidin-4-yl)methyl]-8-(trifluoromethyl)-4,5-dihydro-2H-furo[2,3-g]indazole-7-carboxamide] | 760 nM |
| CC1Cc2oc(C(=O)NC[C@@H]3COCCO3)c(C(F)(F)F)c2-c2nn(C[C@H]3COCCO3)cc21 (mixture of isomers) [Example 254, (4±)-N-{[(2R)-1,4-dioxan-2-yl]methyl}-2-{[(2S)-1,4-dioxan-2-yl]methyl}-4-methyl-8-(trifluoromethyl)-4,5-dihydro-2H-furo[2,3-g]indazole-7-carboxamide] | 6 nM |

| SMILES | IC50 |
| --- | --- |
| [2H]C([2H])(c1ccccc1)n1cc2c(n1)-c1c(oc(C(=O)NC[C@@H]3CCCO3)c1C)CC2 [Example 135, 8-methyl-2-[phenyl(^2H2)methyl]-N-[(2S)-tetrahydrofuran-2-ylmethyl]-4,5-dihydro-2H-furo[2,3-g]indazole-7-carboxamide] | 26 nM |
| Cc1c(C(=O)NCc2ccn(C)n2)oc2c1-c1nn(C[C@H]3COCCO3)cc1C1(CC1)C2 [Example 127, 2′-[(2S)-1,4-dioxan-2-ylmethyl]-8′-methyl-N-[(1-methyl-1H-pyrazol-3-yl)methyl]-2′,5′-dihydrospiro[cyclopropane-1,4′-furo[2,3-g]indazole]-7′-carboxamide] | 170 nM |
| CC1Cc2oc(C(=O)NC[C@@H]3COCCO3)c(C(F)(F)F)c2-c2nn(C[C@H]3COCCO3)cc21 (single isomer, unassigned) [Example 254-2, (4R or 4S)-N-{[(2R)-1,4-dioxan-2-yl]methyl}-2-{[(2S)-1,4-dioxan-2-yl]methyl}-4-methyl-8-(trifluoromethyl)-4,5-dihydro-2H-furo[2,3-g]indazole-7-carboxamide] | 46 nM |
| C[C@@H]1Cc2oc(C(=O)NCc3ncco3)c(C(F)(F)F)c2-c2nn(C[C@H]3COCCO3)cc21 (single isomer, unassigned) [Example 256, (4R or 4S)-2-{[(2S)-1,4-dioxan-2-yl]methyl}-4-methyl-N-[(1,3-oxazol-2-yl)methyl]-8-(trifluoromethyl)-4,5-dihydro-2H-furo[2,3-g]indazole-7-carboxamide] | 14 nM |
| Cc1c(C(=O)NC[C@@H]2CCCO2)oc2c1-c1nn(Cc3ccc(C(F)(F)F)cn3)cc1CC2 [Example 57, 8-methyl-N-[(2S)-tetrahydrofuran-2-ylmethyl]-2-{[5-(trifluoromethyl)pyridin-2-yl]methyl}-4,5-dihydro-2H-furo[2,3-g]indazole-7-carboxamide] | 190 nM |
| Cc1c(C(=O)NCc2nccs2)oc2c1-c1nn(Cc3ccccn3)cc1CC2 [Example 23, 8-methyl-2-(pyridin-2ylmethyl)-N-(1,3-thiazol-2-ylmethyl)-4,5-dihydro-2H-furo[2,3-g]indazole-7-carboxamide] | 160 nM |
| Cc1c(C(=O)NCC2(F)COC2)oc2c1-c1nn(Cc3ccccn3)cc1CC2 [Example 37, N-[(3-fluorooxetan-3-yl)methyl]-8-methyl-2-(pyridin-2-ylmethyl)-4,5-dihydro-2H-furo[2,3-g]indazole-7-carboxamide] | 9500 nM |
| Cc1c(C(=O)NCCN2CCN(c3ccc(C(F)(F)F)cn3)CC2)oc2c1-c1nn(Cc3ccccn3)cc1CC2 [Example 12, 8-methyl-2-(pyridin-2-ylmethyl)-N-(2-{4-[5-(trifluoromethyl)pyridin-2-yl]piperazin-1-yl}ethyl)-4,5-dihydro-2H-furo[2,3-g]indazole-7-carboxamide] | 2760 nM |
| Cc1c(C(=O)NC[C@@H]2COCCO2)oc2c1-c1nn(CC3CC3)cc1CC2 [Example 49, 2-(cyclopropylmethyl)-N-[(2R)-1,4-dioxan-2-ylmethyl]-8-methyl-4,5-dihydro-2H-furo[2,3-g]indazole-7-carboxamide] | 110 nM |
| CN1CCC(Cn2cc3c(n2)-c2c(oc(C(=O)NC[C@@H]4COCCO4)c2C(F)(F)F)CC3)CC1 [Example 309, N-{[(2R)-1,4-dioxan-2-yl]methyl}-2-[(1-methylpiperidin-4-yl)methyl]-8-(trifluoromethyl)-4,5-dihydro-2H-furo[2,3-g]indazole-7-carboxamide] | 154 nM |
| Cc1c(C(=O)NCC2COCC(C)(C)O2)oc2c1-c1nn(C[C@H]3COCCO3)cc1C1(CC1)C2 (mixture of isomers) [Example 196] | 182 nM |
| Cc1c(C(=O)NCC2CCO2)oc2c1-c1nn(Cc3ccccn3)cc1CC2 (single isomer, unassigned) [Example 35-1] | 180 nM |
| CC(=O)N1CCC(Cn2cc3c(n2)-c2c(oc(C(=O)NC[C@@H]4CCCO4)c2C(F)(F)F)CC3)CC1 [Example 305, 2-[(1-acetylpiperidin-4-yl)methyl]-N-{[(2S)-oxolan-2-yl]methyl}-8-(trifluoromethyl)-4,5-dihydro-2H-furo[2,3-g]indazole-7-carboxamide] | 16 nM |
| Cc1c(C(=O)NC[C@@H]2CCCO2)oc2c1-c1nn(C[C@@H]3COCCO3)cc1CC2 [Example 87, 2-[(2R)-1,4-dioxan-2-ylmethyl]-8-methyl-N-[(2S)-tetrahydrofuran-2-ylmethyl]-4,5-dihydro-2H-furo[2,3-g]indazole-7-carboxamide] | 200 nM |
| O=C(NCc1cnccn1)c1oc2c(c1C(F)(F)F)-c1nn(C[C@H]3COCCO3)cc1CC2 [Example 228, 2-[(2S)-1,4-Dioxan-2-ylmethyl]-N-(pyrazin-2-ylmethyl)-8-(trifluormethyl)-4,5-dihydro-2H-furo[2,3-g]indazol-7-carboxamide] | 38 nM |
